Measured values taken from patent US20120122924A1, “NAMPT INHIBITORS” (ABBOTT LABORATORIES, priority 2010, published 2012).

target: recombinant, human, C-terminally-His tagged NAMPT (Homo sapiens, UniProt P43490); experiment: Time-Resolved Fluorescence Resonance Energy Transfer (TR-FRET) binding assay of NAMPT; conditions: 6.8 nM NAMPT, 200 nM probe (Oregon Green 488-conjugated APO866), 1 nM Tb-anti-His antibody, 2-3 hours
Method: Determination of the utility of compounds having Formula (I) as binders to and inhibitors of NAMPT was performed using a Time-Resolved Fluorescence Resonance Energy Transfer (TR-FRET) binding assay.
Time-Resolved Fluorescence Resonance Energy Transfer (TR-FRET) Binding Assay of NAMPT
The assay was carried out in 18 uL low volume plates (Owens Corning) in reaction buffer (50 mM HEPES (NaOH), pH 7.5, 100 mM NaCl, 10 mM MgCl2, 1 mM DTT, 1% Glycerol) using 6.8 nM recombinant, human, C-terminally-His tagged NAMPT, 1 nM Tb-anti-His antibody (Invitrogen, Cat # PV5895), and 200 nM probe (Oregon Green 488-conjugated APO866; A-1251667.0). Plates were covered, and reactions were carried out for 2-3 hours. Plates were read with Envision (Laser Lantha low volume protocol) after 2 to 3 hours. Excitation was carried out at 337 nm, and the ratio of emission of Oregon Green (520 nm) to terbium (492 nm) was determined and used to calculate IC50 values of test compounds.

recombinant, human, C-terminally-His tagged NAMPT, sequence (P43490 whole entry): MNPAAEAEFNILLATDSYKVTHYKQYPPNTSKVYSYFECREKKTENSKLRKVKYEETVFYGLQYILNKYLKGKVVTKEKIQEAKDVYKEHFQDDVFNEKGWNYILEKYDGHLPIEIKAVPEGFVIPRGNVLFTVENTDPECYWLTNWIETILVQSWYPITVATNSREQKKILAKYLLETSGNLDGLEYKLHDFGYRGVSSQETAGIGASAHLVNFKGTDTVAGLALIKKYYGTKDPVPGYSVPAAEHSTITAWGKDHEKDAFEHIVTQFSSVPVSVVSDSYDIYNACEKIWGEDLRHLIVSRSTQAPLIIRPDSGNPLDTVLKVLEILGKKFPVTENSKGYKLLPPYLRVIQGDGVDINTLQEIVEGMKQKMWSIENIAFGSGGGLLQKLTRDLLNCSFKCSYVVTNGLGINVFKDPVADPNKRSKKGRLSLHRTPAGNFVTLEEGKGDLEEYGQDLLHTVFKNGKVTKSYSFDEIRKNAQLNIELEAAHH

Structure (SMILES)	IC50 [nM]
COCCOCC(=O)Nc1ccc(NC(=O)N2CCc3ccccc3C2)cc1 [Example 74, N-(4-{[(2-methoxyethoxy)acetyl]amino}phenyl)-3,4-dihydroisoquinoline-2(1H)-carboxamide]	86.2
O=C(CC1CCCC1)Nc1ccc(NC(=O)N2CCc3ccccc3C2)cc1 [Example 77, N-{4-[(cyclopentylacetyl)amino]phenyl}-3,4-dihydroisoquinoline-2(1H)-carboxamide]	5.16
O=C(CC1CCCCC1)Nc1ccc(NC(=O)N2CCc3ccccc3C2)cc1 [Example 79, N-{4-[(cyclohexylacetyl)amino]phenyl}-3,4-dihydroisoquinoline-2(1H)-carboxamide]	5.3
Nc1ccc(CCC(=O)Nc2ccc(NC(=O)N3CCc4ccccc4C3)cc2)cc1 [Example 82, N-(4-{[3-(4-aminophenyl)propanoyl]amino}phenyl)-3,4-dihydroisoquinoline-2(1H)-carboxamide]	49
O=C(Nc1ccc(NC(=O)N2CCc3ccccc3C2)cc1)c1ccoc1 [Example 83, N-[4-(3-furoylamino)phenyl]-3,4-dihydroisoquinoline-2(1H)-carboxamide]	269
O=C(Nc1ccc(NC(=O)N2CCc3ccccc3C2)cc1)c1ccsc1 [Example 85, N-{4-[(3-thienylcarbonyl)amino]phenyl}-3,4-dihydroisoquinoline-2(1H)-carboxamide]	242
O=C(Nc1ccc(NC(=O)N2CCc3ccccc3C2)cc1)c1ccn[nH]1 [Example 88, N-{4-[(1H-pyrazol-5-ylcarbonyl)amino]phenyl}-3,4-dihydroisoquinoline-2(1H)-carboxamide]	134
CN(C)CCC(=O)Nc1ccc(NC(=O)N2CCc3ccccc3C2)cc1 [Example 92, N-{4-[(N,N-dimethyl-beta-alanyl)amino]phenyl}-3,4-dihydroisoquinoline-2(1H)-carboxamide]	5840
O=C(CN1CCOCC1)Nc1ccc(NC(=O)N2CCc3ccccc3C2)cc1 [Example 94, N-{4-[(morpholin-4-ylacetyl)amino]phenyl}-3,4-dihydroisoquinoline-2(1H)-carboxamide]	69.2
CN1CCN(CCC(=O)Nc2ccc(NC(=O)N3CCc4ccccc4C3)cc2)CC1 [Example 96, N-(4-{[3-(4-methylpiperazin-1-yl)propanoyl]amino}phenyl)-3,4-dihydroisoquinoline-2(1H)-carboxamide]	128
O=C(Nc1ccc(C(F)(F)F)cc1)N1CCc2ccccc2C1 [Example 97, N-[4-(trifluoromethyl)phenyl]-3,4-dihydroisoquinoline-2(1H)-carboxamide]	1490

Continued by falling IC50, values first:

IC50 [nM]	Structure (SMILES)
530	O=C(CCN1CCCCC1)Nc1ccc(NC(=O)N2CCc3ccccc3C2)cc1 [Example 93, N-(4-{[3-(piperidin-1-yl)propanoyl]amino}phenyl)-3,4-dihydroisoquinoline-2(1H)-carboxamide]
377	O=C(Nc1ccc(NC(=O)N2CCc3ccccc3C2)cc1)c1ccc[nH]1 [Example 86, N-{4-[(1H-pyrrol-2-ylcarbonyl)amino]phenyl}-3,4-dihydroisoquinoline-2(1H)-carboxamide]
314	O=C(Nc1ccc(NC(=O)N2CCc3ccccc3C2)cc1)c1ccno1 [Example 90, N-{4-[(1,2-oxazol-5-ylcarbonyl)amino]phenyl}-3,4-dihydroisoquinoline-2(1H)-carboxamide]
203	O=C(Nc1ccc(NC(=O)N2CCc3ccccc3C2)cc1)c1cn[nH]c1 [Example 89, N-{4-[(1H-pyrazol-4-ylcarbonyl)amino]phenyl}-3,4-dihydroisoquinoline-2(1H)-carboxamide]
191	O=C(Nc1ccc(NC(=O)N2CCc3ccccc3C2)cc1)c1ccccc1 [Example 80, N-[4-(benzoylamino)phenyl]-3,4-dihydroisoquinoline-2(1H)-carboxamide]
158	O=C(CCN1CCOCC1)Nc1ccc(NC(=O)N2CCc3ccccc3C2)cc1 [Example 95, N-(4-{[3-(morpholin-4-yl)propanoyl]amino}phenyl)-3,4-dihydroisoquinoline-2(1H)-carboxamide]
116	O=C(Nc1ccc(NC(=O)N2CCc3ccccc3C2)cc1)c1cncs1 [Example 87, N-{4-[(1,3-thiazol-5-ylcarbonyl)amino]phenyl}-3,4-dihydroisoquinoline-2(1H)-carboxamide]
85.8	Cc1cc(C(=O)Nc2ccc(NC(=O)N3CCc4ccccc4C3)cc2)c(C)o1 [Example 84, N-{4-[(2,5-dimethyl-3-furoyl)amino]phenyl}-3,4-dihydroisoquinoline-2(1H)-carboxamide]
66.3	O=C(Nc1ccc(NC(=O)N2CCc3ccccc3C2)cc1)C1CCCCC1 [Example 78, N-{4-[(cyclohexylcarbonyl)amino]phenyl}-3,4-dihydroisoquinoline-2(1H)-carboxamide]
33.2	O=C(CCC(F)(F)F)Nc1ccc(NC(=O)N2CCc3ccccc3C2)cc1 [Example 73, N-{4-[(4,4,4-trifluorobutanoyl)amino]phenyl}-3,4-dihydroisoquinoline-2(1H)-carboxamide]
16	O=C(Cc1ccccn1)Nc1ccc(NC(=O)N2CCc3ccccc3C2)cc1 [Example 91, N-{4-[(pyridin-2-ylacetyl)amino]phenyl}-3,4-dihydroisoquinoline-2(1H)-carboxamide]
14.8	CSCCC(=O)Nc1ccc(NC(=O)N2CCc3ccccc3C2)cc1 [Example 76, N-(4-{[3-(methylthio)propanoyl]amino}phenyl)-3,4-dihydroisoquinoline-2(1H)-carboxamide]
3	CS(=O)(=O)Nc1cccc2c1CCN(C(=O)Nc1ccc(NC(=O)CC3CCCC3)cc1)C2 [Example 98, N-{4-[(cyclopentylacetyl)amino]phenyl}-5-[(methylsulfonyl)amino]-3,4-dihydroisoquinoline-2(1H)-carboxamide]
